Experimental data as given in ChEMBL document CHEMBL5724914, “Linking interpersonal differences in gut microbiota composition and drug biotransformation activity” (2024).

Assays:
[1] = (§1) The drug is tested on Z-025 corresponding to rabbit gut metagenome with ENA study accession number: PRJEB37062 and ENA sample accession number: ERS12561824 for biotransformation under anaerobic condition. The drug concentrations were measured over 9 timepoints collected between 0 and 24 hours of incubation by liquid-chromatography-coupled mass spectrometry (LC–MS); details: 2 µM
[2] = as §1, with “WLS-090” for “Z-025”, “human” for “rabbit”, “ERS12561753” for “ERS12561824”; details: 2 µM
[3] = as §1, with “Z-002” for “Z-025”, “ERS12561802” for “ERS12561824”; details: 2 µM
[4] = as §1, with “Z-009” for “Z-025”, “pig” for “rabbit”, “ERS12561809” for “ERS12561824”; details: 2 µM
[5] = human gut metagenome, 24 h, 2 µM
[6] = human gut metagenome, 24 h, 2 µM; remark: listed apart in the source
[7] = human gut metagenome, 24 h, 2 µM; remark: listed apart in the source
[8] = human gut metagenome, 24 h, 2 µM; remark: listed apart in the source
[9] = human gut metagenome, 24 h, 2 µM; remark: listed apart in the source
[10] = as §1, with “WLS-006” for “Z-025”, “human” for “rabbit”, “ERS12561741” for “ERS12561824”; details: 2 µM
[11] = human gut metagenome, 24 h, 2 µM; remark: listed apart in the source
[12] = human gut metagenome, 24 h, 2 µM; remark: listed apart in the source
[13] = human gut metagenome, 24 h, 2 µM; remark: listed apart in the source
[14] = as §1, with “Z-029” for “Z-025”, “rat” for “rabbit”, “ERS12561828” for “ERS12561824”; details: 2 µM
[15] = human gut metagenome, 24 h, 2 µM; remark: listed apart in the source
[16] = as §1, with “Z-012” for “Z-025”, “to” for “to rabbit gut”, “ERS12561812” for “ERS12561824”; details: 2 µM
[17] = as §1, with “Z-005” for “Z-025”, “to” for “to rabbit gut”, “ERS12561805” for “ERS12561824”; details: 2 µM
[18] = as §1, with “Z-027” for “Z-025”, “to” for “to rabbit gut”, “ERS12561826” for “ERS12561824”; details: 2 µM
[19] = as §1, with “WLS-027” for “Z-025”, “human” for “rabbit”, “ERS12561744” for “ERS12561824”; details: 2 µM
[20] = as §1, with “Z-023” for “Z-025”, “to” for “to rabbit gut”, “ERS12561822” for “ERS12561824”; details: 2 µM
Further: call rule not given here.

| SMILES | Bacterial Biotransformation [1] | Bacterial Biotransformation [2] | Bacterial Biotransformation [3] | Bacterial Biotransformation [4] | Bacterial Biotransformation [5] | Bacterial Biotransformation [6] | Bacterial Biotransformation [7] | Bacterial Biotransformation [8] | Bacterial Biotransformation [9] | Bacterial Biotransformation [10] | Bacterial Biotransformation [11] | Bacterial Biotransformation [12] | Bacterial Biotransformation [13] | Bacterial Biotransformation [14] | Bacterial Biotransformation [15] | Bacterial Biotransformation [16] | Bacterial Biotransformation [17] | Bacterial Biotransformation [18] | Bacterial Biotransformation [19] | Bacterial Biotransformation [20] |
| --- | --- | --- | --- | --- | --- | --- | --- | --- | --- | --- | --- | --- | --- | --- | --- | --- | --- | --- | --- | --- |
| O=c1n(CCCN2CCN(c3cccc(Cl)c3)CC2)nc2ccccn12 [TRAZODONE] | Compound NOT metabolized | Compound metabolized | Compound metabolized | Compound NOT metabolized | Compound NOT metabolized | Compound NOT metabolized | Compound metabolized | Compound metabolized | Compound NOT metabolized | Compound metabolized | Compound metabolized | Compound NOT metabolized | Compound NOT metabolized | Compound NOT metabolized | Compound metabolized | Compound NOT metabolized | Compound NOT metabolized | Compound NOT metabolized | Compound metabolized | Compound NOT metabolized |
| C=CCc1ccccc1OCC(O)CNC(C)C (stereo not given) [ALPRENOLOL] | Compound metabolized | Compound metabolized | Compound metabolized | Compound NOT metabolized | Compound NOT metabolized | Compound NOT metabolized | Compound metabolized | Compound metabolized | Compound NOT metabolized | Compound NOT metabolized | Compound metabolized | Compound NOT metabolized | Compound NOT metabolized | Compound NOT metabolized | Compound NOT metabolized | Compound NOT metabolized | Compound NOT metabolized | Compound metabolized | Compound NOT metabolized | Compound metabolized |
| CNCCC(Oc1ccc(C(F)(F)F)cc1)c1ccccc1 (stereo not given) [FLUOXETINE] | Compound NOT metabolized | Compound NOT metabolized | Compound NOT metabolized | Compound NOT metabolized | Compound NOT metabolized | Compound NOT metabolized | Compound NOT metabolized | Compound NOT metabolized | Compound NOT metabolized | Compound NOT metabolized | Compound NOT metabolized | Compound NOT metabolized | Compound NOT metabolized | Compound NOT metabolized | Compound NOT metabolized | Compound NOT metabolized | Compound NOT metabolized | Compound NOT metabolized | Compound NOT metabolized | Compound NOT metabolized |
| CCOC(=O)[C@H](CCc1ccccc1)N[C@H]1CCc2ccccc2N(CC(=O)O)C1=O [BENAZEPRIL] | Compound NOT metabolized | Compound metabolized | Compound metabolized | Compound metabolized | Compound metabolized | Compound NOT metabolized | Compound metabolized | Compound metabolized | Compound NOT metabolized | Compound metabolized | Compound metabolized | Compound metabolized | Compound NOT metabolized | Compound metabolized | Compound metabolized | Compound metabolized | Compound metabolized | Compound NOT metabolized | Compound metabolized | Compound metabolized |
| CCCCCOC(=O)Nc1nc(=O)n([C@@H]2O[C@H](C)[C@@H](O)[C@H]2O)cc1F [CAPECITABINE] | Compound metabolized | Compound metabolized | Compound metabolized | Compound metabolized | Compound metabolized | Compound metabolized | Compound metabolized | Compound metabolized | Compound NOT metabolized | Compound metabolized | Compound metabolized | Compound metabolized | Compound NOT metabolized | Compound metabolized | Compound metabolized | Compound metabolized | Compound metabolized | Compound metabolized | Compound metabolized | Compound metabolized |
| CN(C)CC(c1ccc(O)cc1)C1(O)CCCCC1.O=C(O)CCC(=O)O (stereo not given) [DESVENLAFAXINE SUCCINATE] | Compound NOT metabolized | Compound NOT metabolized | Compound NOT metabolized | Compound NOT metabolized | Compound NOT metabolized | Compound NOT metabolized | Compound NOT metabolized | Compound NOT metabolized | Compound NOT metabolized | Compound NOT metabolized | Compound NOT metabolized | Compound NOT metabolized | Compound NOT metabolized | Compound NOT metabolized | Compound NOT metabolized | Compound NOT metabolized | Compound NOT metabolized | Compound NOT metabolized | Compound NOT metabolized | Compound NOT metabolized |
| CCCC(=O)Nc1ccc(OCC(O)CNC(C)C)c(C(C)=O)c1 (stereo not given) [ACEBUTOLOL] | Compound NOT metabolized | Compound metabolized | Compound metabolized | Compound NOT metabolized | Compound NOT metabolized | Compound metabolized | Compound metabolized | Compound metabolized | Compound NOT metabolized | Compound NOT metabolized | Compound metabolized | Compound metabolized | Compound metabolized | Compound NOT metabolized | Compound metabolized | Compound NOT metabolized | Compound NOT metabolized | Compound NOT metabolized | Compound NOT metabolized | Compound metabolized |
| Clc1ccc(Cn2c(CN3CCCC3)nc3ccccc32)cc1 [CLEMIZOLE] | Compound metabolized | Compound metabolized | Compound metabolized | Compound NOT metabolized | Compound NOT metabolized | Compound NOT metabolized | Compound metabolized | Compound metabolized | Compound NOT metabolized | Compound metabolized | Compound metabolized | Compound NOT metabolized | Compound NOT metabolized | Compound NOT metabolized | Compound metabolized | Compound NOT metabolized | Compound NOT metabolized | Compound NOT metabolized | Compound metabolized | Compound metabolized |
